From patent publication US9353150B2, “Substituted pyrazino[1′,2′:1 ,5]pyrrolo[2,3-b]-indole-1,4-diones for cancer treatment” (Massachusetts Institute of Technology, priority 2012, dated 2016) come the findings set out here.

Where two headings read alike, the source gives them in different places. Some results are limits rather than exact numbers.

Test [1] deals with U-937 (hystiocytic lymphoma). The test is described as follows: 72-hour IC50 determination for non-adherent cells using MTS. The format is cell-based, human. Here is the method: (§1) Certain synthesized compounds were screened for their ability to induce death in two human cancer cell lines: U-937 (leukemic monocyte lymphoma) and HeLa (cervical cancer).
(§2) Cells were grown in media supplemented with fetal bovine serum (FBS) and antibiotics ([…]). Specifically, experiments were performed using the following cell lines and media compositions: U-937, HeLa, H460, and 786-O (RPMI-1640+10% FBS), and MCF7 (EMEM+10% FBS). Cells were incubated at 37° C. in a 5% CO2, 95% humidity atmosphere.
(§3) In a 96-well plate, compounds were pre-added as DMSO stocks in triplicate to achieve a final concentration of 1%. DMSO and cell-free wells served as the live and dead control, respectively. U-937 (5,000 cells/well) cells were distributed in 100 μL media to the compound-containing plate. After 72 hours, cell viability was assessed by adding 20 μL of a PMS/MTS solution (Cory, A. H.; Owen, T. C.; Barltrop, J. A.; Cory, J. G. Cancer Commun. 1991, 3, 207) to each well, allowing the dye to develop at 37° C. until the live control had processed MTS, and reading the absorbance at λ=490 nm. IC50 values were determined from three or more independent experiments using TableCurve (San Jose, Calif.).

Test [2] relates to HeLa (cervical carcinoma). Kind of test: 72-hour IC50 determination for adherent cells using sulforhodamine B (SRB). The format is cell-based, human. Here is the method:
as §1, §2
(§4) Adherent cells (HeLa, H460, 786-O, and MCF7) were added into 96-well plates (5,000 cells/well for HeLa cell line; 2,000 cells/well for H460, 786-O, and MCF7 cell lines) in 100 μL media and were allowed to adhere for 2-3 hours. Compounds were solubilized in DMSO as 100× stocks, added directly to the cells (100 μL final volume), and tested over a range of concentrations in triplicate (1% DMSO final) on a half-log scale. Concentrations tested ranged from […] to 10 μM, depending on the potency of the compound. DMSO and cell-free wells served as the live and dead control, respectively. After 72 hours of continuous exposure, the plates were evaluated using the SRB colorimetric assay as described previously (Vichai, V.; Kirtikara, K. Nature Prot. 2006, 1, 1112). Briefly, media was removed from the plate, and cells were fixed by the addition of 100 μL cold 10% trichloroacetic acid in water. After incubating at 4° C. for an hour, the plates were washed in water and allowed to dry. Sulforhodamine B was added as a 0.057% solution in 1% acetic acid (100 μL), and the plates were incubated at room temperature for 30 minutes, washed in 1% acetic acid, and allowed to dry. The dye was solubilized by adding 10 mM Tris base solution (pH 10.5, 200 μL) and incubating at room temperature for 30 minutes. Plates were read at λ=510 nm. IC50 values were determined from three or more independent experiments using TableCurve (San Jose, Calif.).

For test [3], the system named is human cancer cell lines. The test is described as follows: Anticancer activity in human cancer cell lines, not tied to one cell line. In kind it is cell-based. Conditions: human cancer cell lines, 72-hour exposure. Here is the method:
as §1
Certain provided compounds were tested in culture against a panel of three supplementary human cancer cell lines representing three additional tumor histologies (H460, lung carcinoma; 786-O, renal carcinoma; MCF-7, breast carcinoma). As shown in Table E1-2, the ETPs retain their potency across the cell lines. In some embodiments, a provided compound is active in all cell lines. In some embodiments, a provide compound can be used to selectively target certain cells and/or cancers. […] Without the intention to be limited, Applicant notes that certain cell lines could be more sensitive to provided compounds; for example, U-937 and HeLa are slightly more sensitive to the ETPs than the other three cell lines.
as §4, §3

Where [4] appears, read: 72-hour exposure, MTS, error is standard deviation of the mean, n ≧ 3, read-out: U-937, 72-hour IC50 (Table E1-1).
The mark [5] stands for this setting: 72-hour exposure, SRB, error is standard deviation of the mean, n ≧ 3, read-out: HeLa, 72-hour IC50 (Table E1-1).
[6] abbreviates: Homo sapiens, U-937, 72-hour exposure, MTS, error is standard deviation of the mean, n ≧ 3, read-out: U-937, 72-hour IC50 (Table E1-1).
Where [7] appears, read: Homo sapiens, HeLa, 72-hour exposure, SRB, error is standard deviation of the mean, n ≧ 3, read-out: HeLa, 72-hour IC50 (Table E1-1).
The mark [8] stands for this setting: Homo sapiens, U-937, 72 h, read-out: U-937, 72-hour IC50 (Table E1-1).
Setting [9] is: Homo sapiens, HeLa, 72 h, read-out: HeLa, 72-hour IC50 (Table E1-1).

One may read the IC50 as the concentration needed to halve the response being measured. Consider `CC(=O)OC[C@@]1(OC(=O)C(C)C)C(=O)N2[C@H]3Nc4ccccc4[C@@]3([C@]34C[C@]5(SSSC(c6ccccc6)(c6ccccc6)c6ccccc6)C(=O)N(C)[C@](COC(C)=O)(OC(=O)C(C)C)C(=O)N5[C@H]3Nc3ccccc34)C[C@]2(SSSC(c2ccccc2)(c2ccccc2)c2ccccc2)C(=O)N1C` [Compound 20], for which the IC50 in test [1] (setting [4]) and in test [2] (setting [5]) was over 10 µM in each case.

With `CC(C)C(=O)O[C@@H]1C(=O)N2[C@H]3Nc4ccccc4[C@@]3(c3c[nH]c4ccccc34)C[C@]2(SC(=O)C(C)C)C(=O)N1C` [Compound 51], the IC50 in test [1] (setting [4]) was over 10 µM; in test [2] (setting [5]), over 1 µM.

Take `CS[C@H]1C(=O)N2[C@H]3N(S(=O)(=O)c4ccccc4)c4ccccc4[C@@]3(c3c[nH]c4ccccc34)C[C@]2(SC)C(=O)N1C` [Compound 39]: the IC50 in test [1] (setting [4]) and in test [2] (setting [5]) was over 10 µM each time.

With `COCCOCS[C@H]1C(=O)N2[C@H]3N(S(=O)(=O)c4ccccc4)c4ccccc4[C@@]3(c3cn(C(=O)OC(C)(C)C)c4ccccc34)C[C@]2(SCOCCOC)C(=O)N1C` [Compound 42, C3-(N-Boc-indol-3′-yl)bis(S-MEM)ether], the IC50 in test [1] (setting [4]) and in test [2] (setting [5]) was over 10 µM throughout.

On to `CCC[C@]12C[C@@]34SC(=S)S[C@@](C)(C(=O)N3C1N(S(=O)(=O)c1ccccc1)c1ccccc12)N(C)C4=O` (some centres unmarked) [Compound 65, C3-Propyl dithiepanethiones], for which the IC50 in test [1] (setting [6]) and in test [2] (setting [7]) was over 1 µM each time. In test [3], the “anticancer activity, in words” value is “substantially lower potencies”.

As for `CN1C(=O)[C@]23C[C@]4(Br)c5ccccc5N(S(=O)(=O)c5ccccc5)[C@@H]4N2C(=O)[C@H]1SS3` [Compound 34, C3-Bromo epidithiodiketopiperazines], the IC50 in test [1] (setting [4]) came to 0.059 ± 0.023 µM; in test [2] (setting [5]), 0.55 ± 0.033 µM. In addition, the “anticancer activity, in words” value in test [3] is “inactive”.

In the case of `COCS[C@]12C[C@]3(c4cn(C(=O)OC(C)(C)C)c5ccccc45)c4ccccc4N(S(=O)(=O)c4ccccc4)[C@@H]3N1C(=O)CN(C)C2=O` [Compound 49], the half-inhibitory concentration (IC50) in test [1] (setting [4]) and in test [2] (setting [5]) was over 10 µM in each case.

As for `CN1C(=O)[C@]2(O)C[C@]3([C@]45C[C@@]6(O)C(=O)N(C)[C@](C)(O)C(=O)N6[C@H]4N(S(=O)(=O)c4ccccc4)c4ccccc45)c4ccccc4N(S(=O)(=O)c4ccccc4)[C@@H]3N2C(=O)[C@@]1(C)O` [Compound 22], the IC50 in test [1] (setting [4]) was over 1 µM; in test [2] (setting [5]), over 10 µM.

As to `CN1C(=O)[C@@]2(S)C[C@]3(c4c[nH]c5ccccc45)c4ccccc4N(S(=O)(=O)c4ccccc4)[C@@H]3N2C(=O)[C@H]1O` [Compound 48, C3-(Indol-3′-yl) C11-thiohemiaminal], the IC50 in test [1] (setting [6]) and in test [2] (setting [7]) was over 10 µM each time.

On to `CC(C)[Si](O[C@@H]1C(=O)N2[C@H]3Nc4ccccc4[C@@]3(c3c[nH]c4ccccc34)C[C@@]2(O)C(=O)N1C)(C(C)C)C(C)C` [Compound 58], for which the 50% inhibitory concentration (IC50) in test [1] (setting [4]) and in test [2] (setting [5]) was over 10 µM each time.

Turning to `CC(=O)OC[C@@]1(OC(=O)C(C)C)C(=O)N2[C@H]3N(S(=O)(=O)c4ccccc4)c4ccccc4[C@@]3([C@]34C[C@]5(SSSC(c6ccccc6)(c6ccccc6)c6ccccc6)C(=O)N(C)[C@](COC(C)=O)(OC(=O)C(C)C)C(=O)N5[C@H]3N(S(=O)(=O)c3ccccc3)c3ccccc34)C[C@]2(SSSC(c2ccccc2)(c2ccccc2)c2ccccc2)C(=O)N1C` [Compound 19, Dimeric bis(triphenylmethanetrisulfide)], the IC50 in test [1] (setting [4]) and in test [2] (setting [5]) was over 10 µM throughout.

On to `CC(C)C(=O)O[C@@H]1C(=O)N2[C@H]3N(S(=O)(=O)c4ccccc4)c4ccccc4[C@@]3(c3c[nH]c4ccccc34)C[C@]2(SC(=O)C(C)C)C(=O)N1C` [Compound 50], for which the IC50 in test [1] (setting [4]) and in test [2] (setting [5]) was over 1 µM each time.

On to `CS[C@H]1C(=O)N2[C@H]3Nc4ccccc4[C@@]3(c3c[nH]c4ccccc34)C[C@]2(SC)C(=O)N1C` [Compound 7, (+)-gliocladin B], for which the IC50 in test [1] (setting [4]) and in test [2] (setting [5]) was over 10 µM throughout.

As for `C[C@H]1C(=O)N2[C@@H](C[C@]3([C@]45C[C@H]6C(=O)N(C)[C@@H](C)C(=O)N6[C@H]4N(S(=O)(=O)c4ccccc4)c4ccccc45)c4ccccc4N(S(=O)(=O)c4ccccc4)[C@H]23)C(=O)N1C` [Compound 21], the IC50 in test [1] (setting [4]) is over 1 µM; in test [2] (setting [5]) it was over 10 µM.

For the compound `CN1CC(=O)N2[C@@H](C[C@]3(Br)c4ccccc4N(S(=O)(=O)c4ccccc4)[C@H]23)C1=O` [Compound 54], the IC50 in test [1] (setting [6]) and in test [2] (setting [7]) was over 10 µM throughout.

On to `CN1C(=O)C(=O)N2C(=C[C@]3(c4c[nH]c5ccccc45)c4ccccc4N[C@H]23)C1=O` [Compound 52, (+)-Gliocladin C], for which the half-maximal inhibitory concentration (IC50) in test [1] (setting [8]) and in test [2] (setting [9]) was over 10 µM in each case.

As for `CN1CC(=O)N2C(CC3(c4c[nH]c5ccccc45)c4ccccc4N(S(=O)(=O)c4ccccc4)C23)C1=O` (centres unmarked) [Compound 59, C3-(indol-3′-yl)-pyrrolidinoindolne], the IC50 in test [1] (setting [4]) and in test [2] (setting [5]) was over 10 µM each time.

Regarding `CN1C(=O)[C@@]23C[C@]4(c5cn(C(=O)OC(C)(C)C)c6ccccc56)c5ccccc5N(S(=O)(=O)c5ccccc5)[C@@H]4N2C(=O)[C@@H]1SS3` [Compound 24, C3-(N-Boc-indol-3′-yl) epidithiodiketopiperazine], the IC50 in test [1] (Homo sapiens, U-937, 72 h, read-out: IC50 (U-937)) is 0.0028 to 0.0148 µM; in test [1] (setting [8]), 0.0059 ± 0.0014 µM; in test [2] (setting [9]), 0.075 ± 0.01 µM; in test [2] (Homo sapiens, HeLa, 72 h, read-out: IC50 (HeLa)), 0.022 to 0.075 µM.

Turning to `CN1C(=O)[C@]2(O)C[C@]3([C@]45C[C@@]6(O)C(=O)N(C)[C@](C)(O[Si](C)(C)C(C)(C)C)C(=O)N6[C@H]4N(S(=O)(=O)c4ccccc4)c4ccccc45)c4ccccc4N(S(=O)(=O)c4ccccc4)[C@@H]3N2C(=O)[C@@]1(C)O[Si](C)(C)C(C)(C)C` [Compound 23], the half-inhibitory concentration (IC50) in test [1] (setting [4]) was over 1 µM; in test [2] (setting [5]) it was over 10 µM.

Turning to `CC(C)[Si](O[C@@H]1C(=O)N2[C@H]3N(S(=O)(=O)c4ccccc4)c4ccccc4[C@@]3(c3c[nH]c4ccccc34)C[C@@]2(O)C(=O)N1C)(C(C)C)C(C)C` [Compound 57], the 50% inhibitory concentration (IC50) in test [1] (setting [4]) and in test [2] (setting [5]) was over 10 µM throughout.

With `CN1C(=O)[C@]2(O)C[C@]3(c4c[nH]c5ccccc45)c4ccccc4N(S(=O)(=O)c4ccccc4)[C@@H]3N2C(=O)[C@H]1O` [Compound 56, C3-(Indol-3′-yl) hexacyclic Diol], the half-maximal inhibitory concentration (IC50) in test [1] (setting [4]) and in test [2] (setting [5]) was over 10 µM throughout.

In the case of `COCCOCS[C@H]1C(=O)N2[C@H]3N(S(=O)(=O)c4ccccc4)c4ccccc4[C@@]3(c3cn(C(=O)OC(C)(C)C)c4ccccc34)C[C@]2(S)C(=O)N1C` [Compound 47, C3-(N-Boc-indol-3′-yl) S15-MEM ether], the 50% inhibitory concentration (IC50) in test [1] (setting [4]) and in test [2] (setting [5]) was over 10 µM throughout.

As to `CC(C)[Si](O[C@@H]1C(=O)N2C(=C[C@]3(c4c[nH]c5ccccc45)c4ccccc4N(C(=O)C(F)(F)F)[C@H]23)C(=O)N1C)(C(C)C)C(C)C` [Compound 53], the IC50 in test [1] (setting [6]) and in test [2] (setting [7]) was over 10 µM each time.
